In assay [1] the test system is rat anti-mouse PD1 monoclonal antibody (mAb) (Biolegend, clone 29F.1A12). Briefly: Colony blot assay of E. coli clones expressing GST-fused overlapping mPD1 peptides. The settings on record: GST-fused 15-mer. The format is binding. The source says:
The protein sequence corresponding to the extracellular domain of mouse PD-1 (Q02242; Uniprot) was electronically back-translated into DNA sequences (ATG:Biosynthetics GmbH; Merzhausen, Germany). The protein-coding DNA sequences were partitioned into uniformly sized peptide-CDS as overlapping peptides in 15 amino acids (aa) length, with an offset of 3 aa, and the resulted DNA sequences were inserted into the expression vector pEPX-1 (ATG:Biosynthetics GmbH; Merzhausen, Germany). […] Expression vectors were used for transformation of E. coli strain BL21. Colonies (clones) of E. coli harbouring the expression vectors were picked from plates supplemented with Kanamycin and used for screening by colony blot assay. A colony harbouring the expression vector with no insert (i.e. control) was also picked.
The clones of interest were replicated onto nitrocellulose membranes and lysed with lysis solution (Tris-HCl pH 8.0 50 mM, Lysozyme 200 μg/ml), followed by three cycles of freezing at −80C and thawing at 37C. After the last step of thawing, the membranes were incubated with the blocking solution containing PBS-5% skim milk. The blocking solution was discarded and the membranes were incubated for 2 h at RT with rat anti-mouse PD1 monoclonal antibody (mAb) (Biolegend, clone 29F.1A12). […]

For assay [2], the target named is T1, Jurkat T cells expressing mPD1 (Mus musculus, UniProt Q02242).
T1 construct: expressed in transfected cells; host or cells: Jurkat E6.1 NF-kB::eGFP reporter T cells (human)
T1 sequence (Q02242 25-288): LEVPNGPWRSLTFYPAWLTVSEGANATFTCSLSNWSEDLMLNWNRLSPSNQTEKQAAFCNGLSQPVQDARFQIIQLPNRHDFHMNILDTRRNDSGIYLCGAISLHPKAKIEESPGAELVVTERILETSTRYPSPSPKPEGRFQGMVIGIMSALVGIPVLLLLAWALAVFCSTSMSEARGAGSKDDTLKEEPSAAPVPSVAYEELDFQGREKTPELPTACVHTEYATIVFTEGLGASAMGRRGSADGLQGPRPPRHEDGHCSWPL
Briefly: Inhibition of anti-mouse PD1 mAb binding to mPD1-positive Jurkat T cells. The format is cell-based. The settings on record: mAb pre-incubated with different concentrations of JT-mPD1. As for the experimental part: To produced T cells expressing mouse PD-1, Jurkat E6.1 NF-κB::eGFP reporter T cell line and the K562 stimulator cell line were cultured as previously described (Battin et al. PLoS One, 2017, 12(5):e0178220; PMID: 28542462). JE6.1 NF-kB::eGFP reporter cells expressing mouse PD-1 have been previously described (Jutz et al. Oncotarget, 2017, 8(39):64892-64906; PMID: 29029399). T cell stimulator cells, based on the K562 cell line (K562S), were generated by retrovirally transducing a CD5L-OKT3scFv-CD14 construct encoding an anti-human CD3 single chain fragment fused to human CD14 (Leitner et al. J. Immunol. Methods, 2010, 362(1-2):131-141; PMID: 20858499). K562S stimulate human T cells and T cell lines by ligating their TCR-CD3 complex. In order to separate stimulator cells from reporter cells, K562S were engineered to constitutively express a red fluorescent protein (RFP). […] To confirm cell surface expression of respective molecules, a PE-conjugated anti-mPD-1 antibody (29F.1A12) from Biolegend (San Diego, CA) was used. Membrane-bound anti-CD3 fragment on K562S cells was detected with a PE-conjugated goat-anti-mouse IgG (H+L) antibody (Jackson ImmunoResearch, West Grove, PA). […] Data was analysed using FlowJo software (version 10.0.8., Tree Star, Ashland, OR) and Graphpad Prism (version 5, GraphPad Software, Inc., La Jolla, CA). […]

In assay [3] the target is PD1 (SEQ ID NO:1) conjugated to a His tag (Homo sapiens, UniProt Q15116). The assay can be described thus: ELISA of anti-PD1 antibody titre in immunised rabbits on PD1 coated plates. The format is binding. The following applies: rabbits immunised with KLH-conjugated peptide in Freund's adjuvant. On the procedure: Approximately 250-500 μg of each KLH-conjugated peptide fragment was diluted with saline and subsequently emulsified in complete or incomplete Freund's adjuvant at a mass ratio of 1:1. The emulsified solution was administered to rabbits by subcutaneous injection around the shoulders and intramuscular injection into the legs in accordance with the following immunization protocol: • i. Day 00—Serum collected 2 ml (for 0.5-1.0 ml pre-immune serum; • ii. Day 01—1st-immunization, complete Freund's adjuvant, 500 μg peptide fragment; • iii. Day 15—2nd-immunization, complete Freund's adjuvant, 500 μg peptide fragment; • iv. Day 29—3rd-immunization, incomplete Freund's adjuvant, 250 μg peptide fragment; • v. Day 35—Serum collected, 2-3 ml for assessment of anti-PD1 antibody titre by ELISA; • vi. Day 36—4th-immunization, incomplete Freund's adjuvant, 250 μg peptide fragment (optional); • vii. Day 43—5th-immunization, incomplete Freund's adjuvant. 250 μg peptide fragment (optional); • viii. Day 50—6th-immunization, incomplete Freund's adjuvant 250 μg peptide fragment (optional); • ix. Day 57—7th-immunization, incomplete Freund's adjuvant 250 μg peptide fragment (optional); • x. Day 63—Blood sample is collected from the immunised rabbits. B. Assessment of Anti-PDJ Antibody Titre in Immunised Rabbits by ELISA
Chain of PD1 (SEQ ID NO:1) conjugated to a His tag (Q15116 25-170): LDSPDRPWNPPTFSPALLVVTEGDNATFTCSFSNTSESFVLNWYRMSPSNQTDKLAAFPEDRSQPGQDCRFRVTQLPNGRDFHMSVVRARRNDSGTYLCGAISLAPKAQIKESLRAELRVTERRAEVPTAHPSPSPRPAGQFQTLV
An enzyme-linked immunosorbent assays (ELISA) was used to measure the anti-PD1 antibody titre in the blood samples collected from the immunized rabbits. Briefly, microtiter plates were coated with PD1 (SEQ ID NO:1) conjugated to a His tag. After blocking the wells of the microtiter plates with BSA to minimise non-specific binding, diluted sera from the immunized rabbits were added to the plates and incubated on a shaker for around 1 hr at 20° C. (or alternatively overnight at 4° C.). The plates were then washed four times with PBS/0.1% v/v Tween 20 and excess wash buffer was removed from each well.
Approximately 100 μL of a horseradish peroxidase-labeled anti-rabbit antibody was then added to each well and incubated for around 1 hr at 20° C. The plates were then washed four times with PBS/0.1% v/v Tween 20 and excess wash buffer was removed from each well. The plates were then washed twice with PBS only, to remove traces of Tween remaining from the washing buffer.
To detect the presence of horseradish peroxidase-labeled, anti-rabbit antibody, 100 μL of 1-Step™ ABTS (Pierce Cat. No. 37615) was added to each well and incubated for up to 45 min at 20° C. The absorbance of any colour change in each well was read using a microtitre Titertek Multiskan MC plate reader in the dual wavelength mode at 405 nm against a reference wavelength of 492 nm and compared to appropriate negative controls, such as the colour change observed in a well to which no PD1 was added, to which no immunised rabbit sera was added and/or to which no horseradish peroxidase-labeled, anti-rabbit antibody was added.
Approximately 250-500 μg of each KLH-conjugated fusion peptides were diluted with saline and subsequently emulsified in complete or incomplete Freund's adjuvant at a mass ratio of 1:1. The emulsified solutions were administered to rabbits by subcutaneous injection around the shoulders and intramuscular injection into the legs in accordance with the immunization protocol of Example 2, above.
An enzyme-linked immunosorbent assays (ELISA) was used to measure the anti-PD1 antibody titre in the blood samples collected from the immunized rabbits, in accordance with the methodology set out in Example 2 above. The absorbance readings from the ELISA assay are shown in Table 8, below (SEQ TD NO:9 is underlined): […]
(In general: ELISA stands for enzyme-linked immunosorbent assay.)

Assay [4] concerns PD1 protein from other species—mouse, rat, Rhesus monkey, Cynomolgus monkey and canine. Briefly: Cross-reactivity ELISAs, summary over species. Format: binding. The following applies: for cross-reactivity of affinity-purified anti-PD1 antibodies from animals immunised with the peptide with PD1 protein from other species: mouse, rat, Rhesus monkey, Cynomolgus monkey and canine. On the procedure:
To assess whether or not the anti-human PD1 antibodies raised in the immunised rabbits would cross-react with PD1 of other species, the anti-PD1 antisera from the Examples 7 and 8, above, were screened in an ELISA assay for binding to mouse, rhesus monkey, canine and rat PD1 proteins.
A further ELISA assay was performed to make a direct comparison of the cross-reactivity of anti-human PD1 antibodies raised in the immunised rabbits (Rabbits 1 and 2) to PD1 proteins of different species.

Entries after “also recorded” stand apart in the source; their conditions may differ.

On to “ISLHPKAKIEESPGA (listed as Mus musculus) [JT-mPD1, amino acid residues 126-140 of mouse PD1 (Uniprot Q02242)]”, for which the “reactivity to the rat anti-mouse PD1 monoclonal antibody” value in assay [1] is reported as “reactive”. Further, the “inhibition of binding of anti-mouse PD1 mAb to mPD1-positive Jurkat T cells” value in assay [2] is “dose-dependently inhibited; also recorded: inhibited dose-dependently”.
With “LRVTERRAEVPT (listed as Homo sapiens) [SEQ ID NO:49]”, the “anti-PD1 antibody response / titre raised in immunised rabbits (in words)” value in assay [3] was “raising an anti-PD1 antibody response; also recorded: sufficient anti-PD1 antibody titres”. Also, in assay [4], the “species of greatest cross-reactivity of the anti-PD1 antibodies raised with the peptide” value is “greatest cross-reactivity to PD1 protein from Rhesus and Cynomolgus monkeys”; the “cross-reactivity of affinity-purified anti-PD1 antibodies from animals immunised with the peptide with PD1 protein from other species” value (“cross-reactivity … from other species” for short) is “at least some cross-reactivity”.
Turning to “NWYRMSPSNQTD (listed as Homo sapiens) [SEQ ID NO:59]”, in assay [3], the “anti-PD1 antibody response / titre raised in immunised rabbits (in words)” value is on record as “raising an anti-PD1 antibody response; also recorded: sufficient anti-PD1 antibody titres”. In assay [4], the “species of greatest cross-reactivity of the anti-PD1 antibodies raised with the peptide” value is “greatest cross-reactivity to PD1 protein from Rhesus and Cynomolgus monkeys”; the “cross-reactivity … from other species” value is reported as “at least some cross-reactivity”.
Turning to “YLSGAISLAPKA (listed as Homo sapiens) [SEQ ID NO:61]”, in assay [3], the “anti-PD1 antibody response / titre raised in immunised rabbits (in words)” value is recorded as “raising an anti-PD1 antibody response; also recorded: sufficient anti-PD1 antibody titres”. In assay [4], the “species of greatest cross-reactivity of the anti-PD1 antibodies raised with the peptide” value is “greatest cross-reactivity to PD1 protein from Rhesus and Cynomolgus monkeys”; the “cross-reactivity … from other species” value was “at least some cross-reactivity”.

The values are drawn from patent US12311019B2, “Vaccine composition and uses thereof” (Imugene Limited, priority 2018, dated 2025).
